The target in one series is GluN1/GluN2D (Rattus norvegicus, UniProt P35439+Q62645). In words: Two-electrode voltage-clamp recordings, Xenopus laevis oocytes, GluN1/GluN2D. To be noted: 100 μM glutamate, 30 μM glycine; for remaining activity at 30 µM: 30 μM test compound, mean ± SEM, read-out: I 30 μM / I control GluN2D; for IC50: read-out: IC50 GluN2D [95% CI]. It is filed as cell-based. Also on record: GluN2B (NM_012574.1), GluN2C (NM_012575.3), and GluN2D (NM_022797.2) were provided by; expressed in transfected cells; host or cells: Xenopus laevis oocytes (cRNA injection). On the procedure: All target compounds were evaluated for NMDAR antagonism using two-electrode voltage-clamp recordings from Xenopus laevis oocytes coexpressing recombinant GluN1 and GluN2A-D subunits (Table 1).[32],[42],[33] All analogues were assessed as either a racemic (2b, 2e–2r) or diastereomeric (2d) mixture to simplify purification and streamline in vitro analysis. […] Moreover, as illustrated by the significant loss of NMDAR activity observed with nitrile 2e, the DQP allosteric site necessitated an H-bond donor/acceptor relationship at the carboxylate position. […] The loss of NMDAR activity observed with the trifluoro analogue 2j (Table S1) reinforced the necessity for an H-bond donor/acceptor relationship to maintain allosteric binding and established that fluorine substitution alone is ineffective. […] A single methyl substitution of the amide in compound 2q improved selectivity against GluN2A and had similar potency as 2a, whereas dual methyl substitution reduced potency (2r). We expect that this is likely due to the ability of the […] of the amide to accept hydrogen bonds while the amide can readily donate a proton.
Unfertilized Xenopus laevis oocytes were obtained from Ecocyte (Austin, TX), or ovaries were purchased from Xenopus 1 (Dexter, MI) and oocytes prepared as previously described.[42],[47] Two-electrode voltage-clamp recordings were performed on oocytes expressing recombinant rat GluN1/GluN2A, GluN1/GluN2B, GluN1/GluN2C, or GluN1/GluN2D. cDNAs for rat GluN1-1a (referred to as GluN1; NCBI Reference Sequence NM_017010.2), GluN2A (NM_012573.4), GluN2B (NM_012574.1), GluN2C (NM_012575.3), and GluN2D (NM_022797.2) were provided by Dr. S. Heinemann from the Salk Institute, Dr. S. Nakanishi from Kyoto University, and Dr. P. Seeburg from the University of Heidelberg. Oocyte isolation, cRNA synthesis, and cRNA injections were performed as previously described.[32],[33],[47] Briefly, Xenopus laevis oocytes were injected with 5–10 ng of cRNA in RNase-free water with the GluN1:GluN2 ratio ranging from 1:1 to 1:5. Oocytes were incubated at 15–19 °C in Barth’s solution consisting of (in mM) 88 NaCl, 1 KCl, 2.4 NaHCO3, 10 HEPES, 0.82 MgSO4, 0.33 Ca(NO3)2, and 0.41 CaCl2 supplemented with 100 μg/mL gentamycin, 40 μg/mL streptomycin, and 50 μg/mL penicillin. Recordings were performed 2–4 days after injection with extracellular recording solution containing (in mM) 90 NaCl, 1 KCl, 10 HEPES, 0.5 BaCl2, and 0.01 EDTA at pH 7.4 adjusted with NaOH. To prevent a gradual increase in current response over the course of the experiment, some oocytes expressing GluN1/GluN2A were injected with 20–50 nL of 2–50 mM K-BAPTA. Concentration–response curves for test compounds were generated by applying a maximally effective concentration of glutamate (100 μM) and glycine (30 μM), followed by glutamate and glycine with variable concentrations of test compounds up to 30 μM. The test compounds were prepared as 20 mM stock solutions in DMSO and diluted to the final concentration in recording solution. The DMSO content was 0.05–0.5% (v/v). […] Methods for off-target analysis are given in the Supporting Information.
Confidence intervals were determined for the log(IC50). The time course of relaxation during inhibitor application or deactivation following rapid removal of NMDA or glutamate was fitted by the equation [drawing 5] 2

A short description of series [1]: Liver microsome stability, human. The format is in vitro ADME. Conditions: for microsomal CLint at 3 μM: human liver microsomes; for half-life at 3 μM / remaining at 0.5 h, 3 µM: liver microsomes; for half-life at 3 μM: incubation up to 30 min, read-out: liver microsome stability T1/2, human; for remaining at 0.5 h, 3 µM: over the assay time course (30 min), read-out: % remaining, human LMs. On the procedure:
Human liver microsomes (HLMs, 20 mg/mL) and CD-1 mouse liver microsomes (MLMs, 20 mg/mL) were purchased from Xenotech. NADPH was purchased from Sigma-Aldrich and prepared in 10 mM stock solutions of distilled H2O (Invitrogen UltraPure). Verapamil and diphenhydramine were both purchased from Sigma-Aldrich and served as positive controls for HLM and MLM stability, respectively. Test compounds and positive controls were initially dissolved in DMSO to make 10 mM stock solutions. Sample solutions were then further diluted in 70% MeOH/H2O or 100% MeCN to 500 μM. Next, the reactions were prepared by mixing human or mouse liver microsomes (55 μL) with potassium phosphate buffer (100 mM, […]) in 1.5 mL Eppendorf tubes. The test compounds (6.6 μL of 500 μM solution) were subsequently added to the suspensions, and the reaction mixtures were incubated at 37 °C for 5 min. Afterward, the liver microsome reactions were initiated with 110 μL of 10 mM NADPH and further incubated at 37 °C for the designated time course of the study. This procedure provided experiments with a final volume of 1100 μL (<0.6% organic solvent content), a concentration for HLMs and MLMs of 1 mg/mL, and a final test compound concentration of 3 μM. Aliquots (100 μL) were removed from each reaction mixture in duplicate at 0, 5, 10, 15, and 30 min time intervals and quenched with 100 μL of cold internal standard solution (ISTD, 2 μM 7-ethoxy-d5-coumarin in MeOH or MeCN). Quenched aliquots were then centrifuged at 12 500 g for 5–10 min, and the resulting supernatants were withdrawn and placed in LC-MS vials to be analyzed by LC-MS/MS (Agilent G6460C QQQ MS coupled with an Infinity II 1260 HPLC). Each test compound was run in tandem with positive and negative control experiments for quality assurance. Positive control reactions were conducted at a final volume of 550 μL for a single run at each time point. Lastly, the negative control experiment was conducted with test compounds and liver microsomes in the absence of NADPH (150 μL) and analyzed at the 30 min time point.
For both LM and plasma assays, each data point was analyzed in triplicate using between blank washes to avoid carry over and to equilibrate the column for the subsequent runs. Averages of these triplicates for individual compounds at each time point were then normalized to the data at 0 min, representing 100% of the test compound remaining or 0% metabolism. Half-lives (t1/2) were calculated by plotting ln of % test compound remaining versus time and performing linear regression to determine slope. Slope = −k and t1/2 = 0.693/k for first-order kinetics (see Figures S5 and S6 for a representative example).

Sequence of GluN1/GluN2D (Q62645 28-1323, other chains not shown): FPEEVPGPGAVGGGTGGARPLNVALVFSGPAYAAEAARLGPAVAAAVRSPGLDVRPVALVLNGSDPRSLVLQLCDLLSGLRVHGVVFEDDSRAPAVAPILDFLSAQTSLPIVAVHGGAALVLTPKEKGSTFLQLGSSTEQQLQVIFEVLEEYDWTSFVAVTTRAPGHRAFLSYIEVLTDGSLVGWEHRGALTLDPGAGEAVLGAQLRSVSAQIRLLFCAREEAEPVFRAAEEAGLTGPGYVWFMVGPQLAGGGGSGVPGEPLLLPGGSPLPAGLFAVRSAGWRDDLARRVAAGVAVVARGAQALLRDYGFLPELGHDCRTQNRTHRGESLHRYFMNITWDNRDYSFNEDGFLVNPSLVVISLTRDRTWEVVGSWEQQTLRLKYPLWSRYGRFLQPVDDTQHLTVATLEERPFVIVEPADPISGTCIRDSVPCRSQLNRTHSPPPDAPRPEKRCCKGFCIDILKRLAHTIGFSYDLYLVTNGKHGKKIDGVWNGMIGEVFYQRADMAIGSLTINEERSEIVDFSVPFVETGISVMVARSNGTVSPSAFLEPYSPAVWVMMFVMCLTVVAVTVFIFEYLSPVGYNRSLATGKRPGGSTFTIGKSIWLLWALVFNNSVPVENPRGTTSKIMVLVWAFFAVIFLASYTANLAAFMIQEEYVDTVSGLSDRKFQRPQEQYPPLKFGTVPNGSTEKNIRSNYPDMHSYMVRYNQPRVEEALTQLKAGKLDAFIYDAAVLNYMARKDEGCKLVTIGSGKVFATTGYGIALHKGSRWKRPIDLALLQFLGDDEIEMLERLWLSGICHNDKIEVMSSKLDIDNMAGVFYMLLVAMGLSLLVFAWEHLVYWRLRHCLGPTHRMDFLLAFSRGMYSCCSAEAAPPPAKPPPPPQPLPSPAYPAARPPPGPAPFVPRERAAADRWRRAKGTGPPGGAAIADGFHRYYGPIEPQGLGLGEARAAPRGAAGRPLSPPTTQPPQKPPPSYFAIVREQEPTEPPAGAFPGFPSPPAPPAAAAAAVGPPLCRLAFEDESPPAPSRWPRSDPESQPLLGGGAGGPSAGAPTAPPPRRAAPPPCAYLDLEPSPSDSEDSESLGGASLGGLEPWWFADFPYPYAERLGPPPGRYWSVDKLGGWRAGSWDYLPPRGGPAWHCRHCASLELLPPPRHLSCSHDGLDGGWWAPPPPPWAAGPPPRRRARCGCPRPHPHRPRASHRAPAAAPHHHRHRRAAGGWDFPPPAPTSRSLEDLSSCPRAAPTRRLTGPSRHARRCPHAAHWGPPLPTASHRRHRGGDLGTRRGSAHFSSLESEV

By microsomal CLint is commonly meant the rate of metabolic loss divided by the concentration. `CC(C)OC(=O)CC(F)(F)C(=O)N1N=C(c2c(-c3ccc(Cl)cc3)c3ccccc3[nH]c2=O)CC1c1ccc(Cl)cc1` (centres unmarked) [2m]: the remaining activity at 30 µM on GluN1/GluN2D worked out at 92 ± 3.1%. Also, in series [1], the microsomal CLint at 3 μM is 173 µL/min/mg and the half-life at 3 μM worked out at 4 min.
The IC50 is the concentration needed to halve the response being measured. Usually fraction remaining stands for the share of the starting amount still present when the sample was taken. `NC(=O)CC(F)(F)C(=O)N1N=C(c2c(-c3ccc(Cl)cc3)c3ccccc3[nH]c2=O)CC1c1ccc(Cl)cc1` (centres unmarked) [2k]: on GluN1/GluN2D, the IC50 was 240 nM. Further, in series [1], the microsomal CLint at 3 μM is < 23 µL/min/mg; the half-life at 3 μM was > 30 min; the amount remaining at 0.5 h, 3 µM is > 90%.
`CNC(=O)CC(F)(F)C(=O)N1N=C(c2c(-c3ccc(Cl)cc3)c3ccccc3[nH]c2=O)CC1c1ccc(Cl)cc1` (centres unmarked) [2q]: the IC50 on GluN1/GluN2D is 410 nM. In series [1], the microsomal CLint at 3 μM was 104 µL/min/mg and the half-life at 3 μM is ≤ 7 min.
Turning to `O=C(CC(F)(F)C(=O)N1N=C(c2c(-c3ccc(Cl)cc3)c3ccccc3[nH]c2=O)CC1c1ccc(Cl)cc1)OCc1ccccc1` (centres unmarked) [2p], at GluN1/GluN2D, the remaining activity at 30 µM was determined as 96 ± 0.53%. In series [1], the microsomal CLint at 3 μM was determined as 105 µL/min/mg and the half-life at 3 μM worked out at 6.6 min.
As for `O=C(O)CC(F)(F)C(=O)N1N=C(c2c(-c3ccc(Cl)cc3)c3ccccc3[nH]c2=O)C[C@H]1c1ccc(Cl)cc1` [(S)-(−)-2i], at GluN1/GluN2D, the IC50 worked out at 35 nM.
Consider `O=C(CC(F)(F)C(=O)N1N=C(c2c(-c3ccc(Cl)cc3)c3ccccc3[nH]c2=O)CC1c1ccc(Cl)cc1)OCC1CC1` (centres unmarked) [2n], for which the remaining activity at 30 µM on GluN1/GluN2D is 92 ± 2.7%. For the same compound, in series [1], the microsomal CLint at 3 μM turned out to be 289 µL/min/mg and the half-life at 3 μM is 2.4 min.
As to `O=C(O)CCC(=O)N1N=C(c2c(-c3ccc(Cl)cc3)c3ccccc3[nH]c2=O)CC1c1ccc(Cl)cc1` (centres unmarked) [2a], in series [1], the microsomal CLint at 3 μM is < 23 µL/min/mg; the half-life at 3 μM is > 30 min; the share remaining at 0.5 h, 3 µM is > 95%.
`O=C(O)CC(F)(F)C(=O)N1N=C(c2c(-c3ccc(Cl)cc3)c3ccccc3[nH]c2=O)CC1c1ccc(Cl)cc1` (centres unmarked) [2i]: at GluN1/GluN2D, the IC50 is 130 nM. Moreover, in series [1], the microsomal CLint at 3 μM was < 23 µL/min/mg; the half-life at 3 μM is > 30 min; the share remaining at 0.5 h, 3 µM was > 95%.
Turning to `CCOC(=O)CC(F)(F)C(=O)N1N=C(c2c(-c3ccc(Cl)cc3)c3ccccc3[nH]c2=O)CC1c1ccc(Cl)cc1` (centres unmarked) [2l], the remaining activity at 30 µM on GluN1/GluN2D is 87 ± 0.8%. In addition, in series [1], the microsomal CLint at 3 μM was determined as 193 µL/min/mg and the half-life at 3 μM stood at 3.6 min.
On to `CN(C)C(=O)CC(F)(F)C(=O)N1N=C(c2c(-c3ccc(Cl)cc3)c3ccccc3[nH]c2=O)CC1c1ccc(Cl)cc1` (centres unmarked) [2r], for which the IC50 on GluN1/GluN2D was determined as 1400 nM. In series [1], the microsomal CLint at 3 μM was 165 µL/min/mg and the half-life at 3 μM was ≤ 7 min.
Consider `CC(C)(C)COC(=O)CC(F)(F)C(=O)N1N=C(c2c(-c3ccc(Cl)cc3)c3ccccc3[nH]c2=O)CC1c1ccc(Cl)cc1` (centres unmarked) [2o], for which, in series [1], the microsomal CLint at 3 μM was found to be 187 µL/min/mg and the half-life at 3 μM came out at 3.7 min.

Values taken from article PMC10485906, “Development of a Dihydroquinoline–Pyrazoline GluN2C/2D-Selective Negative Allosteric Modulator of the N-Methyl-D-aspartate Receptor” (ACS Chemical Neuroscience, 2023).
